Data: patent publication US8372967B2, “Compounds and methods for modulating expression of GCCR” (Isis Pharmaceuticals, Inc., priority 2006, dated 2013)
Strand notation (5' to 3'): a small letter for the sugar, then the base; units joined by * are phosphorothioate-linked, units joined directly phosphodiester-linked; [ ] holds rarer units or linkages, { } end groups; capitals alone tell only the bases. e = 2'-O-(2-methoxyethyl) (MOE); [5mC] = 5-methylcytosine; d = 2'-deoxy (DNA)

What was measured:
Format in all cases: in vivo, mouse
[1] = ALT & AST levels and toxic effects, GCGR study (Table 32); settings: C57/BL6 mice, pre-treatment bleed
Description: (§1) Eight-week old male C57/BL6 mice (Jackson Laboratory, Bar Harbor, Me.) were administered a single dose of GCGR oligonucleotide by intraperitoneal injection at a concentration of […]. Each dose group consisted of four animals. Shown in Table 31 are the sequences, motifs and conjugates of the GCGR antisense compounds used in this study. Bolded residues indicate 2′-O-methoxyethyl (2′-MOE) moieties. All compounds comprise phosphorothioate internucleoside linkages throughout and each cytosine is replaced with 5-methylcytosine. ISIS 386626, ISIS 386627 and ISIS 386628 further comprise a C16 conjugate group attached to the 2′-O position of the sugar via a diamide linkage (2′-OCH2C(═O)N(H)(CH2)4N(H)C(═O)—(CH2)15CH3). GCGR antisense compounds target published GCGR sequences, including Genbank® Accession No. BC031885.1 (SEQ ID NO: 7).
(§2) Mice were sacrificed 48 hours following injection to determine serum transaminase levels (Table 32); liver, white adipose tissue (WAT), spleen and kidney weight (Table 33); cholesterol, triglyceride and glucose levels (Table 34); GCGR mRNA levels (Tables 35-41); and full-length and total oligonucleotide concentration in liver and kidney (Table 42). Endpoints were assessed using methods described herein and well known to those of ordinary skill in the art. Data is included from a pre-treatment bleed (Pre-Bleed) and post-treatment bleed (Post-Bleed).

GCGR mRNA [2] = test: GCGR mRNA levels in liver and estimated ED50, C57/BL6 mice, single i.p. dose of MOE and methyleneoxy BNA gapmers (Tables 44, 45); settings: liver
Description: Eight-week old male C57/BL6 mice (Jackson Laboratory, Bar Harbor, Me.) were administered a single dose of GCGR antisense compound by intraperitonel (i.p.) injection at a concentration of 10, 3.2, 1, and 0.32 μmol·kg. Each dose group consisted of four animals. Shown in Table 43 are the sequences, motifs and conjugates of the GCGR antisense compounds used in this study. Bolded residues indicate 2′-O-methoxyethyl (2′-MOE) modifications and the italicized residues indicate methyleneoxy (4′-CH2—O-2′) BNA modifications. All antisense compounds comprise phosphorothioate internucleoside linkages throughout and each cytosine is replaced with 5-methylcytosine. GCGR antisense compounds target published GCGR nucleic acids, including Genbank Accession No. BC031885.1 (SEQ ID NO: 7).
To determine whether the phenotypic changes shown above correlated with a decrease in GCGR mRNA, treated animals were evaluated for levels of target mRNA in liver by RT, real time PCR according to methods described herein. Table 44 show results from direct comparisons of the antisense compounds targeting GCGR nucleic acid for their effect on target expression. Results are expressed as percent of saline control.

GCGR mRNA [3] = test: GCGR mRNA levels in liver, C57/BL6 mice, single i.p. dose (Tables 35-41)
Description: Prior to quantitative PCR analysis, primer-probe sets specific to the target gene being measured were evaluated for their ability to be “multiplexed” with a GAPDH amplification reaction. After isolation the RNA is subjected to sequential reverse transcriptase (RT) reaction and real-time PCR, both of which are performed in the same well. RT and PCR reagents were obtained from Invitrogen Life Technologies (Carlsbad, Calif.). […] The RT reaction was carried out by incubation for 30 minutes at 48° C. Following a 10 minute incubation at 95° C. to activate the PLATIN 9M® Taq, 40 cycles of a two-step PCR protocol were carried out: 95° C. for 15 seconds (denaturation) followed by 60° C. for 1.5 minutes (annealing/extension).
170 μL of RiboGreen® working reagent (RiboGreen® reagent diluted 1:350 in 10 mM Tris-HCl, 1 mM EDTA, pH 7.5) was pipetted into a 96-well plate containing 30 μL purified cellular RNA. The plate was read in a CytoFluor® 4000 (PE Applied Biosystems) with excitation at 485 nm and emission at 530 nm.
as §1, §2
To determine whether the phenotypic changes shown above correlated with a decrease in GCGR mRNA, treated animals were evaluated for levels of target mRNA in liver by real time PCR according to methods described herein. Tables 35 to 41 show results from direct comparisons of the antisense compounds targeting GCGR nucleic acid for their effect on target expression. Results are expressed as percent of saline control.

[4] = Triglyceride, cholesterol and glucose levels, pre-bleed and post-bleed, GCGR study (Table 34); design: Triglyceride (TRIG) Pre-Bleed / Triglyceride (TRIG) Post-Bleed / Cholesterol (CHOL) Pre-Bleed / Cholesterol (CHOL) Post-Bleed / Glucose Pre-Bleed / Glucose Post-Bleed: unit not given here; settings: for Cholesterol (CHOL) Pre-Bleed / Triglyceride (TRIG) Pre-Bleed: pre-treatment bleed; for Cholesterol (CHOL) Post-Bleed / Triglyceride (TRIG) Post-Bleed: post-treatment bleed
[5] = Total and full-length antisense compound concentrations in liver and kidney, GCGR study (Table 42); settings: 48 h after single i.p. dose
Description: as §1, §2
Treatment with the 2-10-2 MOE gapmers led to a significant dose-dependent decrease in GCGR mRNA expression. […] To determine whether the observed increase in efficiency with the short antisense compounds is due to an increase in antisense compound accumulation, full-length and total antisense compound concentration in the liver and kidney were determined.

Substance: 148364 (antisense eT*eG*e[5mC]*eA*e[5mC]*dT*dT*dT*dG*dT*dG*dG*dT*dA*d[5mC]*e[5mC]*eA*eA*eG*eG) [compound 148364]
- ALT Pre-Bleed ([1]; dose group 6.25 mg/kg): 28 IU/L
- AST Pre-Bleed ([1]; dose group 6.25 mg/kg): 47 IU/L
- ALT Pre-Bleed ([1]; dose group 12.5 mg/kg): 23 IU/L
- AST Pre-Bleed ([1]; dose group 12.5 mg/kg): 44 IU/L
- ALT Pre-Bleed ([1]; dose group 25 mg/kg): 26 IU/L
- AST Pre-Bleed ([1]; dose group 25 mg/kg): 42 IU/L
- ALT Pre-Bleed ([1]; dose group 50 mg/kg): 24 IU/L
- AST Pre-Bleed ([1]; dose group 50 mg/kg): 40 IU/L
- GCGR mRNA levels (GCGR mRNA [2]; 0.32 μmol/kg single i.p.): 105% of saline control
- GCGR mRNA levels (GCGR mRNA [2]; 1 μmol/kg single i.p.): 106% of saline control
- GCGR mRNA levels (GCGR mRNA [2]; 3.2 μmol/kg single i.p.): 73% of saline control
- GCGR mRNA levels (GCGR mRNA [2]; 10 μmol/kg single i.p.): 38% of saline control
- GCGR mRNA levels (GCGR mRNA [3]; 6.25 mg/kg, Table 35 comparison ISIS 148364 & ISIS 386626): 62% of saline control
- GCGR mRNA levels (GCGR mRNA [3]; 6.25 mg/kg, Table 36 comparison ISIS 148364 & ISIS 386627): 86% of saline control
- GCGR mRNA levels (GCGR mRNA [3]; 6.25 mg/kg, Table 37 comparison ISIS 148364 & ISIS 386593): 86% of saline control
- GCGR mRNA levels (GCGR mRNA [3]; 6.25 mg/kg, Table 38 comparison ISIS 148364 & ISIS 386628): 101% of saline control
- GCGR mRNA levels (GCGR mRNA [3]; 6.25 mg/kg, Table 39 comparison ISIS 148364 & ISIS 386594): 96% of saline control
- GCGR mRNA levels (GCGR mRNA [3]; 12.5 mg/kg, Table 35 comparison ISIS 148364 & ISIS 386626): 87% of saline control
- GCGR mRNA levels (GCGR mRNA [3]; 12.5 mg/kg, Table 36 comparison ISIS 148364 & ISIS 386627): 105% of saline control
- GCGR mRNA levels (GCGR mRNA [3]; 12.5 mg/kg, Table 37 comparison ISIS 148364 & ISIS 386593): 105% of saline control
- GCGR mRNA levels (GCGR mRNA [3]; 12.5 mg/kg, Table 38 comparison ISIS 148364 & ISIS 386628): 98% of saline control
- GCGR mRNA levels (GCGR mRNA [3]; 12.5 mg/kg, Table 39 comparison ISIS 148364 & ISIS 386594): 102% of saline control
- GCGR mRNA levels (GCGR mRNA [3]; 25 mg/kg, Table 35 comparison ISIS 148364 & ISIS 386626): 79% of saline control
- GCGR mRNA levels (GCGR mRNA [3]; 25 mg/kg, Table 36 comparison ISIS 148364 & ISIS 386627): 87% of saline control
- GCGR mRNA levels (GCGR mRNA [3]; 25 mg/kg, Table 37 comparison ISIS 148364 & ISIS 386593): 74% of saline control
- GCGR mRNA levels (GCGR mRNA [3]; 25 mg/kg, Table 38 comparison ISIS 148364 & ISIS 386628): 77% of saline control
- GCGR mRNA levels (GCGR mRNA [3]; 25 mg/kg, Table 39 comparison ISIS 148364 & ISIS 386594): 98% of saline control
- GCGR mRNA levels (GCGR mRNA [3]; 50 mg/kg, Table 35 comparison ISIS 148364 & ISIS 386626): 36% of saline control
- GCGR mRNA levels (GCGR mRNA [3]; 50 mg/kg, Table 36 comparison ISIS 148364 & ISIS 386627): 63% of saline control
- GCGR mRNA levels (GCGR mRNA [3]; 50 mg/kg, Table 37 comparison ISIS 148364 & ISIS 386593): 56% of saline control
- GCGR mRNA levels (GCGR mRNA [3]; 50 mg/kg, Table 38 comparison ISIS 148364 & ISIS 386628): 42% of saline control
- GCGR mRNA levels (GCGR mRNA [3]; 50 mg/kg, Table 39 comparison ISIS 148364 & ISIS 386594): 59% of saline control
- Cholesterol (CHOL) Pre-Bleed ([4]; 6.25 mg/kg group): 86
- Triglyceride (TRIG) Pre-Bleed ([4]; 6.25 mg/kg group): 86
- Cholesterol (CHOL) Post-Bleed ([4]; 6.25 mg/kg single i.p.): 89
- Triglyceride (TRIG) Post-Bleed ([4]; 6.25 mg/kg single i.p.): 162
- Cholesterol (CHOL) Pre-Bleed ([4]; 12.5 mg/kg group): 85
- Triglyceride (TRIG) Pre-Bleed ([4]; 12.5 mg/kg group): 106
- Cholesterol (CHOL) Post-Bleed ([4]; 12.5 mg/kg single i.p.): 89
- Triglyceride (TRIG) Post-Bleed ([4]; 12.5 mg/kg single i.p.): 179
- Cholesterol (CHOL) Pre-Bleed ([4]; 25 mg/kg group): 83
- Triglyceride (TRIG) Pre-Bleed ([4]; 25 mg/kg group): 115
- Cholesterol (CHOL) Post-Bleed ([4]; 25 mg/kg single i.p.): 96
- Triglyceride (TRIG) Post-Bleed ([4]; 25 mg/kg single i.p.): 200
- Cholesterol (CHOL) Pre-Bleed ([4]; 50 mg/kg group): 81
- Triglyceride (TRIG) Pre-Bleed ([4]; 50 mg/kg group): 110
- Cholesterol (CHOL) Post-Bleed ([4]; 50 mg/kg single i.p.): 94
- Triglyceride (TRIG) Post-Bleed ([4]; 50 mg/kg single i.p.): 177
- Full-length Antisense Compound Concentration Kidney ([5]; kidney): 58 µg/g
- Total Antisense Compound Concentration Kidney ([5]; kidney): 90 µg/g
- Full-length Antisense Compound Concentration Liver ([5]; liver): 46 µg/g
- Total Antisense Compound Concentration Liver ([5]; liver): 54 µg/g
